# From ChEMBL document CHEMBL1159158, “Cyclic urea HIV protease inhibitors containing alkynyl- and alkenyl-tethered heterocycles in the P2 region” (Bioorg Med Chem Lett, 1996)
# Molecular target: T1, Human immunodeficiency virus type 1 protease (Human immunodeficiency virus 1, UniProt Q72874)
# Experiment: Compound was evaluated for binding affinity towards HIV-Protease enzyme.
row,Compound,Ki
1,O=C1N(C/C=C/c2cn[nH]c2)[C@H](Cc2ccccc2)[C@H](O)[C@@H](O)[C@@H](Cc2ccccc2)N1C/C=C/c1cn[nH]c1,0.25 nM
2,O=C1N(C/C=C/c2cn[nH]c2)[C@H](Cc2ccccc2)[C@H](O)[C@@H](O)[C@@H](Cc2ccccc2)N1CC1CC1,0.41 nM

# Molecular target: T1, Human immunodeficiency virus type 1 protease
# Experiment: Binding affinity to HIV-protease
row,Ki,Compound
1,≥ 1000 nM,O=C1N(CC#CCN2CCOCC2)[C@H](Cc2ccccc2)[C@H](O)[C@@H](O)[C@@H](Cc2ccccc2)N1CC#CCN1CCOCC1
2,≥ 1000 nM,CC1(C)O[C@@H]2[C@@H](O1)[C@@H](Cc1ccccc1)N(CC#Cc1cnc3ccccc3c1)C(=O)N(CC#Cc1cnc3ccccc3c1)[C@@H]2Cc1ccccc1
3,≥ 1000 nM,O=C1N(CC#Cc2cc3ccccc3cn2)[C@H](Cc2ccccc2)[C@H](O)[C@@H](O)[C@@H](Cc2ccccc2)N1CC#Cc1cc2ccccc2cn1
4,≥ 1000 nM,CC(C)N(CC#CCN1C(=O)N(CC#CCN(C(C)C)C(C)C)[C@H](Cc2ccccc2)[C@H](O)[C@@H](O)[C@H]1Cc1ccccc1)C(C)C
5,≥ 1000 nM,CC1(C)O[C@@H]2[C@@H](O1)[C@@H](Cc1ccccc1)N(CC#Cc1ccsc1)C(=O)N(CC#Cc1ccsc1)[C@@H]2Cc1ccccc1
6,≥ 1000 nM,O=C1N(CC#Cc2ccsc2)[C@H](Cc2ccccc2)[C@H](O)[C@@H](O)[C@@H](Cc2ccccc2)N1CC#Cc1ccsc1
7,≥ 1000 nM,CC1(C)O[C@@H]2[C@@H](O1)[C@@H](Cc1ccccc1)N(CC#Cc1cncnc1)C(=O)N(CC#Cc1cncnc1)[C@@H]2Cc1ccccc1
8,≥ 1000 nM,O=C1N(CC#Cc2cnc3ccccc3c2)[C@H](Cc2ccccc2)[C@H](O)[C@@H](O)[C@@H](Cc2ccccc2)N1CC#Cc1cnc2ccccc2c1
9,≥ 1000 nM,CC(C)(C)OC(=O)C1CCCN1CC#CCN1C(=O)N(CC#CCN2CCCC2C(=O)OC(C)(C)C)[C@H](Cc2ccccc2)[C@H](O)[C@@H](O)[C@H]1Cc1ccccc1 (stereo partly drawn)
10,≥ 1000 nM,CC(C)(C)OC(=O)n1cc(C#CCN2C(=O)N(CC#Cc3cnn(C(=O)OC(C)(C)C)c3)[C@H](Cc3ccccc3)[C@H](O)[C@@H](O)[C@H]2Cc2ccccc2)cn1
11,≥ 1000 nM,COCCOCn1cc(C#CCN2C(=O)N(CC#Cc3cnn(COCCOC)c3)[C@H](Cc3ccccc3)[C@@H]3OC(C)(C)O[C@H]3[C@H]2Cc2ccccc2)cn1
12,≥ 1000 nM,O=C1N(CC#CCN2CCCCC2)[C@H](Cc2ccccc2)[C@H](O)[C@@H](O)[C@@H](Cc2ccccc2)N1CC#CCN1CCCCC1
13,≥ 1000 nM,CC1(C)O[C@@H]2[C@@H](O1)[C@@H](Cc1ccccc1)N(CC#Cc1cccnc1)C(=O)N(CC#Cc1cccnc1)[C@@H]2Cc1ccccc1
14,≥ 1000 nM,COCCOCn1cc(C#CCN2C(=O)N(CC#Cc3cnn(COCCOC)c3)[C@H](Cc3ccccc3)[C@H](O)[C@@H](O)[C@H]2Cc2ccccc2)cn1
15,≥ 1000 nM,CC1(C)O[C@@H]2[C@@H](O1)[C@@H](Cc1ccccc1)N(CC#Cc1cccs1)C(=O)N(CC#Cc1cccs1)[C@@H]2Cc1ccccc1
16,≥ 1000 nM,CC1(C)O[C@@H]2[C@@H](O1)[C@@H](Cc1ccccc1)N(CC#Cc1cc3ccccc3cn1)C(=O)N(CC#Cc1cc3ccccc3cn1)[C@@H]2Cc1ccccc1
17,≥ 1000 nM,CCN(CC)CC#CCN1C(=O)N(CC#CCN(CC)CC)[C@H](Cc2ccccc2)[C@H](O)[C@@H](O)[C@H]1Cc1ccccc1
18,≥ 1000 nM,O=C1N(CC#Cc2cccs2)[C@H](Cc2ccccc2)[C@H](O)[C@@H](O)[C@@H](Cc2ccccc2)N1CC#Cc1cccs1
19,≥ 1000 nM,O=C1N(CC#Cc2cn[nH]c2)[C@H](Cc2ccccc2)[C@H](O)[C@@H](O)[C@@H](Cc2ccccc2)N1CC#Cc1cn[nH]c1
20,≥ 1000 nM,O=C1N(CC#Cc2cccnc2)[C@H](Cc2ccccc2)[C@H](O)[C@@H](O)[C@@H](Cc2ccccc2)N1CC#Cc1cccnc1
21,≥ 1000 nM,CC1(C)O[C@@H]2[C@@H](O1)[C@@H](Cc1ccccc1)N(CC#Cc1cn[nH]c1)C(=O)N(CC#Cc1cn[nH]c1)[C@@H]2Cc1ccccc1
22,≥ 1000 nM,CC(C)(C)OC(=O)n1cc(C#CCN2C(=O)N(CC#Cc3cnn(C(=O)OC(C)(C)C)c3)[C@H](Cc3ccccc3)[C@@H]3OC(C)(C)O[C@H]3[C@H]2Cc2ccccc2)cn1
23,≥ 1000 nM,O=C1N(CC#Cc2cncnc2)[C@H](Cc2ccccc2)[C@H](O)[C@@H](O)[C@@H](Cc2ccccc2)N1CC#Cc1cncnc1

row,Compound,Ki
1,C#CCN1C(=O)N(CC#C)[C@H](Cc2ccccc2)[C@@H]2OC(C)(C)O[C@H]2[C@H]1Cc1ccccc1,22 nM

# Molecular target: Human immunodeficiency virus type 1 protease (Human immunodeficiency virus 1) (UniProt Q72874)
# Experiment: Compound was evaluated for its antiviral activity against HIV-Protease in cell based assay.
row,Compound,IC90
1,O=C1N(C/C=C/c2cn[nH]c2)[C@H](Cc2ccccc2)[C@H](O)[C@@H](O)[C@@H](Cc2ccccc2)N1C/C=C/c1cn[nH]c1,370 nM
2,O=C1N(C/C=C/c2cn[nH]c2)[C@H](Cc2ccccc2)[C@H](O)[C@@H](O)[C@@H](Cc2ccccc2)N1CC1CC1,820 nM
